According to the supplement of paper PMC10307832:

What was measured:
Assay in all cases: relative viability (nuclei count vs DMSO), 5 days (fraction); higher = more cells survive
[1] = tested on: HCC-78
In short: (§1)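 Lung cancer cell lines in 1536-well plates were dosed by pin tool the day after seeding, either with one drug alone or with a fixed anchor-drug dose plus five library-drug doses (not always all listed) in √10 steps. After 5 days, cells were fixed and their nuclei stained in one step (final 0.05% Triton X-100, 1% formaldehyde, 1 ug/ml Hoechst), then counted on 4× images. Relative viability is the nuclei count in treated wells divided by that in vehicle wells. Values are medians of duplicate plates.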

[2] = tested on: NCI-H650
In short: as §1

[3] = tested on: HARA
In short: as §1

[4] = tested on: NCI-H596
In short: as §1

[5] = tested on: PC-3 [JPC-3]
In short: as §1

[6] = tested on: NCI-H23
In short: as §1

[7] = tested on: COR-L23
In short: as §1

[8] = tested on: LU99A
In short: as §1

[9] = tested on: NCI-H3122
In short: as §1

[10] = tested on: NCI-H1793
In short: as §1

[11] = tested on: SK-LU-1
In short: as §1

[12] = tested on: NCI-H358
In short: as §1

[13] = tested on: H3255
In short: as §1

[14] = tested on: 201T
In short: as §1

[15] = tested on: NCI-H1651
In short: as §1

[16] = tested on: NCI-H1755
In short: as §1

[17] = tested on: NCI-H460
In short: as §1

[18] = tested on: NCI-H322M
In short: as §1

[19] = tested on: NCI-H1650
In short: as §1

[20] = tested on: NCI-H2085
In short: as §1

[21] = tested on: HCC-366
In short: as §1

[22] = tested on: NCI-H2087
In short: as §1

[23] = tested on: NCI-H522
In short: as §1

For `CCNC(=O)c1noc(-c2cc(C(C)C)c(O)cc2O)c1-c1ccc(CN2CCOCC2)cc1` [Luminespib] + Nc1nc2[nH]cc(CCc3ccc(C(=O)N[C@@H](CCC(=O)O)C(=O)O)cc3)c2c(=O)[nH]1 [Pemetrexed] (partner 0.2 µM), the relative viability ([1]; first compound 0.002 µM) was 0.885, the relative viability ([1]; first compound 0.006325 µM) was 0.864 and the relative viability ([1]; first compound 0.02 µM) was 0.97. It also gave a relative viability ([1]; first compound 0.06325 µM) of 0.87, a relative viability ([1]; first compound 0.2 µM) of 0.858 and a relative viability ([2]; first compound 0.002 µM) of 0.925. The relative viability ([2]; first compound 0.006325 µM) was 0.983, the relative viability ([2]; first compound 0.02 µM) was 0.625 and the relative viability ([2]; first compound 0.06325 µM) was 0.257. The relative viability ([2]; first compound 0.2 µM) was 0.113, the relative viability ([3]; first compound 0.002 µM) was 0.253 and the relative viability ([3]; first compound 0.006325 µM) was 0.24. The relative viability ([3]; first compound 0.02 µM) was 0.273, the relative viability ([3]; first compound 0.06325 µM) was 0.172 and the relative viability ([3]; first compound 0.2 µM) was 0.135. The relative viability ([4]; first compound 0.002 µM) was 0.526, the relative viability ([4]; first compound 0.006325 µM) was 0.493 and the relative viability ([4]; first compound 0.02 µM) was 0.548. For the same compound, the relative viability ([4]; first compound 0.06325 µM) was 0.518, the relative viability ([4]; first compound 0.2 µM) was 0.528 and the relative viability ([5]; first compound 0.002 µM) was 0.706. For the same compound, the relative viability ([5]; first compound 0.006325 µM) was 0.342, the relative viability ([5]; first compound 0.02 µM) was 0.681 and the relative viability ([5]; first compound 0.06325 µM) was 0.357. For the same compound, the relative viability ([5]; first compound 0.2 µM) was 0.272, the relative viability ([6]; first compound 0.002 µM) was 0.743 and the relative viability ([6]; first compound 0.006325 µM) was 0.655. It also gave a relative viability ([6]; first compound 0.02 µM) of 0.391, a relative viability ([6]; first compound 0.06325 µM) of 0.139 and a relative viability ([6]; first compound 0.2 µM) of 0.14. For the same compound, the relative viability ([7]; first compound 0.002 µM) was 0.19, the relative viability ([7]; first compound 0.006325 µM) was 0.187 and the relative viability ([7]; first compound 0.02 µM) was 0.215. For the same compound, the relative viability ([7]; first compound 0.06325 µM) was 0.196, the relative viability ([7]; first compound 0.2 µM) was 0.101 and the relative viability ([8]; first compound 0.002 µM) was 0.192. For the same compound, the relative viability ([8]; first compound 0.006325 µM) was 0.198, the relative viability ([8]; first compound 0.02 µM) was 0.177 and the relative viability ([8]; first compound 0.06325 µM) was 0.168. For the same compound, the relative viability ([8]; first compound 0.2 µM) was 0.127, the relative viability ([9]; first compound 0.002 µM) was 0.203 and the relative viability ([9]; first compound 0.006325 µM) was 0.182. The relative viability ([9]; first compound 0.02 µM) was 0.184, the relative viability ([9]; first compound 0.06325 µM) was 0.135 and the relative viability ([9]; first compound 0.2 µM) was 0.111. The relative viability ([10]; first compound 0.002 µM) was 0.859, the relative viability ([10]; first compound 0.006325 µM) was 0.741 and the relative viability ([10]; first compound 0.02 µM) was 0.294. It also gave a relative viability ([10]; first compound 0.06325 µM) of 0.122, a relative viability ([10]; first compound 0.2 µM) of 0.119 and a relative viability ([11]; first compound 0.002 µM) of 1.01. The relative viability ([11]; first compound 0.006325 µM) was 0.779, the relative viability ([11]; first compound 0.02 µM) was 0.825 and the relative viability ([11]; first compound 0.06325 µM) was 0.244. For the same compound, the relative viability ([11]; first compound 0.2 µM) was 0.206, the relative viability ([12]; first compound 0.002 µM) was 0.186 and the relative viability ([12]; first compound 0.006325 µM) was 0.16. The relative viability ([12]; first compound 0.02 µM) was 0.167, the relative viability ([12]; first compound 0.06325 µM) was 0.147 and the relative viability ([12]; first compound 0.2 µM) was 0.078. For the same compound, the relative viability ([13]; first compound 0.002 µM) was 0.579, the relative viability ([13]; first compound 0.006325 µM) was 0.497 and the relative viability ([13]; first compound 0.02 µM) was 0.529. It also gave a relative viability ([13]; first compound 0.06325 µM) of 0.536, a relative viability ([13]; first compound 0.2 µM) of 0.335 and a relative viability ([14]; first compound 0.002 µM) of 0.333. It also gave a relative viability ([14]; first compound 0.006325 µM) of 0.311, a relative viability ([14]; first compound 0.02 µM) of 0.346 and a relative viability ([14]; first compound 0.06325 µM) of 0.359. The relative viability ([14]; first compound 0.2 µM) was 0.206, the relative viability ([15]; first compound 0.002 µM) was 0.555 and the relative viability ([15]; first compound 0.006325 µM) was 0.536. For the same compound, the relative viability ([15]; first compound 0.02 µM) was 0.474, the relative viability ([15]; first compound 0.06325 µM) was 0.646 and the relative viability ([15]; first compound 0.2 µM) was 0.443. The relative viability ([16]; first compound 0.002 µM) was 0.415, the relative viability ([16]; first compound 0.006325 µM) was 0.424 and the relative viability ([16]; first compound 0.02 µM) was 0.415. It also gave a relative viability ([16]; first compound 0.06325 µM) of 0.264, a relative viability ([16]; first compound 0.2 µM) of 0.2 and a relative viability ([17]; first compound 0.002 µM) of 0.0608. It also gave a relative viability ([17]; first compound 0.006325 µM) of 0.0558, a relative viability ([17]; first compound 0.02 µM) of 0.0687 and a relative viability ([17]; first compound 0.06325 µM) of 0.0359. It also gave a relative viability ([17]; first compound 0.2 µM) of 0.0287, a relative viability ([18]; first compound 0.002 µM) of 0.638 and a relative viability ([18]; first compound 0.006325 µM) of 0.507. It also gave a relative viability ([18]; first compound 0.02 µM) of 0.596, a relative viability ([18]; first compound 0.06325 µM) of 0.409 and a relative viability ([18]; first compound 0.2 µM) of 0.376. It also gave a relative viability ([19]; first compound 0.002 µM) of 0.404, a relative viability ([19]; first compound 0.006325 µM) of 0.368 and a relative viability ([19]; first compound 0.02 µM) of 0.426. It also gave a relative viability ([19]; first compound 0.06325 µM) of 0.152, a relative viability ([19]; first compound 0.2 µM) of 0.137 and a relative viability ([20]; first compound 0.002 µM) of 0.908. For the same compound, the relative viability ([20]; first compound 0.006325 µM) was 0.893, the relative viability ([20]; first compound 0.02 µM) was 0.698 and the relative viability ([20]; first compound 0.06325 µM) was 0.309. The relative viability ([20]; first compound 0.2 µM) was 0.261, the relative viability ([21]; first compound 0.002 µM) was 0.169 and the relative viability ([21]; first compound 0.006325 µM) was 0.156. It also gave a relative viability ([21]; first compound 0.02 µM) of 0.366, a relative viability ([21]; first compound 0.06325 µM) of 0.0354 and a relative viability ([21]; first compound 0.2 µM) of 0.0333. The relative viability ([22]; first compound 0.002 µM) was 0.708, the relative viability ([22]; first compound 0.006325 µM) was 0.627 and the relative viability ([22]; first compound 0.02 µM) was 0.639. The relative viability ([22]; first compound 0.06325 µM) was 0.152, the relative viability ([22]; first compound 0.2 µM) was 0.133 and the relative viability ([23]; first compound 0.002 µM) was 1.01. The relative viability ([23]; first compound 0.006325 µM) was 0.974, the relative viability ([23]; first compound 0.02 µM) was 0.855 and the relative viability ([23]; first compound 0.06325 µM) was 0.675. It also gave a relative viability ([23]; first compound 0.2 µM) of 0.353.
